Columns and labels:
[1] = system: Histamin-Freisetzung aus Mastzellen; test: allergically induced histamine release (sensitised rats, method of Shore et al.); assay type: cell-based, Ratten; conditions: Mast cell, concentration 10 µmol/l, read-out: Hemmung der Freisetzung
Description: Die pharmakologische Testung auf Wirksamkeit bei der allergisch induzierten Histaminfreisetzung an sensibilisierten Ratten erfolgte gemäß der Versuchsvorschrift von P.A. Shore et al., I. Pharmacol. Exp. Ther., 127 (1959), S. 182.
Die Verbindung gemäß gemaß Beispiel 1 zeigt folgende Werte: Bei der allergisch induzierten Histamin-Freisetzung ergibt ein Konzentration 10 µmol/l eine 25 % - Hemmung der Freisetzung.

Spätphaseneosinophile = test: inhibition of late-phase eosinophils in guinea pigs (Cartwright; eosinophil counting); assay type: in vivo, Meerschweinchen; conditions: 30 mg pro Kilogramm Körpergewicht, p.o.
Experimental: (§1) Die Verbindung gemäß Beispiel 16 zeigt im Versuch der Hemmung der Spätphaseneosinophile in Meerschweinchen gemäß der Vorschrift von Cartwright, Diagnostic Laboratory Hematology, 1968, S. 48 und Mac Fortare et al, Eosinophil Counting, Brit. Med. 9., 2, 1187 (1951) in der Dosis von 30 mg pro Kilogramm Körpergewicht, gegeben p.o., einen Hemmwert von 80 %. Bei der Hemmung der LTD-4-Rezeptor-Bindung gemäß Borbe und Zierenberg, Pharmacopsychiatry 18, 314 319 (1985) ergab sich eine Hemmung von 50 % der Aktivität bei einer Konzentration von 7,4 µmol/l.

LTD-4-Rezeptor = molecular target: T1, LTD-4-Rezeptor (Homo sapiens, UniProt Q9Y271); test: inhibition of LTD-4 receptor binding (Borbe and Zierenberg); conditions: read-out: Hemmung von 50 % der Aktivität bei einer Konzentration von
T1 sequence (Q9Y271 1-337): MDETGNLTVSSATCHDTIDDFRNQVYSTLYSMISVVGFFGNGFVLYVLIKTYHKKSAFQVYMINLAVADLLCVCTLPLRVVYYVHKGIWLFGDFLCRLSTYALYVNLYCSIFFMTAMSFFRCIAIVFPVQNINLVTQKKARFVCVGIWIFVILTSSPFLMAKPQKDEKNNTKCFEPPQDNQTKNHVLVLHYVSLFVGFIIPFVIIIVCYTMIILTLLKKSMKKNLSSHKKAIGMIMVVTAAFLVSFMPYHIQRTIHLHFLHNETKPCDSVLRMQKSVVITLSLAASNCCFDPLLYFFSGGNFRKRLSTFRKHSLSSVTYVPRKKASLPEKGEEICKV
Experimental: as §1

| Compound | inhibition at 10 µM [1] | Hemmwert (Spätphaseneosinophile) | IC50 (LTD-4-Rezeptor) |
| --- | --- | --- | --- |
| O=C1CN2N=C(c3ccccc3)c3ccccc3C2=NN1 [Beispiel 1, 7-Phenyl-2H-triazino(3,4a)phthalazin-3(4H)-on] | 25% | – | – |
| CN1CC(=O)NN=C1c1ccc(OCc2ccc3ccccc3n2)c(Cl)c1 [Beispiel 16, 3-{3-Chlor-4-[(2-chinolyl)methoxy]phenyl}-4-methyl-4,5-dihydro-1,2,4-triazin-6-on] | – | 80% | 7.4 µM |

Reference: patent EP0599152A1, “Triazinones and Triazinophthalazinones possessing antiasthmatic/antiallergic, positive inotropic and antihypertensive activities” (ASTA Medica Aktiengesellschaft, priority 1992, dated 1994)
